In patent publication EP4129319A1, “PORE-FORMING ANTIMICROBIAL PEPTIDES” (priority 2021, dated 2023):
Read-outs that look alike come from different tables or passages of the source. Ends that are not written are not given here.

Legend:
Calcein leakage assay = format: biochemical; details: for Extent of leakage (in percentage) at increasing peptide-to-lipid ratio (mol/mol) 1:10 / Extent of leakage (in percentage) at increasing peptide-to-lipid ratio (mol/mol) 1:20 / Extent of leakage (in percentage) at increasing peptide-to-lipid ratio (mol/mol) 1:50 / Extent of leakage (in percentage) at increasing peptide-to-lipid ratio (mol/mol) 1:100: calcein leakage, POPC:POPG (1:1 mol/mol) LUVs; for Extent of leakage (in percentage) at increasing peptide-to-lipid ratio (mol/mol) 1:10: peptide-to-lipid ratio 1:10 (mol/mol); for Extent of leakage (in percentage) at increasing peptide-to-lipid ratio (mol/mol) 1:20: peptide-to-lipid ratio 1:20 (mol/mol); for Extent of leakage (in percentage) at increasing peptide-to-lipid ratio (mol/mol) 1:50: peptide-to-lipid ratio 1:50 (mol/mol); for Extent of leakage (in percentage) at increasing peptide-to-lipid ratio (mol/mol) 1:100: peptide-to-lipid ratio 1:100 (mol/mol)
Protocol: (§1) Chemicals. […] (Prague, Czech Republic), and Caslo ApS (Kongens Lyngby, Denmark). […] The bacterial stock was stored at -80°C.
Calcein leakage assay. Pore-forming activity of the peptides was tested by their ability to leak the self-quenching fluorescent dye calcein entrapped within POPC:POPG (1:1 mol/mol) large unilamellar vesicles (LUVs). After mixing DiD to the lipid mixture (in the ratio 1:500 mol/mol), a thin lipid film was created by evaporating of the chloroform, traces of which were removed by desiccating overnight. The lipid film was then dissolved in calcein buffer, followed by vigorous vortexing. The lipid suspension was subsequently subjected to 10 freeze-thaw cycles. To obtain uniform LUVs, the sample was passed 50 times back and forth through an extruder stacked with 100 nm pore size polycarbonate membrane filter. Afterwards, the untrapped calcein was removed on a HiTrap Desalting Column (with Sephadex G-25 Superfine resin) by washing with PBS buffer. The concentration of the lipid suspension was then adjusted to 0.02 mM. The concentration of the peptide solution was 0.1 mM. The inventors monitored the peptide-induced release of calcein from LUVs by the increase in fluorescence intensity after adding increasing amounts of peptides to the LUVs under constant stirring at 25 °C. The investigated range of peptide/lipid molecular ratio was from 1:100 to 1:10. The excitation and emission wavelengths were set to 495 nm and 520 nm, respectively. Maximum fluorescence intensity was obtained by disrupting all the vesicles in the end by adding 10% Triton X-100. Experiments were performed in triplicates with independently prepared lipid vesicles.

[1] = system: Gram-negative Escherichia coli TOP10 strain; format: cell-based; details: for Antibacterial activity (MIC in µM) E. coli TOP10: broth microdilution assay; for MIC against E. coli: 24 h at 37 °C, dilution series 50 to 0.1 µM
Protocol: as §1
(§2) Broth microdilution assay. Antimicrobial activity of the peptides was investigated against Gram-negative Escherichia coli TOP10 strain and Gram-positive Staphylococcus carnosus CCM 4838T using broth microdilution assay, based on which the inventors determined the bacterial minimum inhibition concentration (MIC). After cross streaking with bacteria, the petri dishes (with MHA) were incubated for 24 h at 37 °C. Overnight grown cultures were then sub-cultured for 4-6 h at 37 °C in test tubes containing MHB. The sub-cultured solutions were subsequently diluted to a standard concentration of 10^6 colony forming units (CFU) per mL. Cell counts were determined by measuring the optical density at 600 nm. In a flat-bottomed 96 well plate, the inventors prepared a dilution series for the peptides and for the reference antibiotic ampicillin from 50 to 0.1 µM concentration, which was then inoculated with bacteria and incubated for 24 h at 37 °C. Growth control wells were free from peptides or ampicillin to show the viability of the bacteria, and sterility control wells were free from bacterial inoculation to verify the sterility of the medium. The bacterial growth was visually evaluated based on the turbidity. MIC was determined as the lowest concentrated well where no visible bacterial growth was observed. To test the bacteriostatic or bacteriocidal activity of the peptides, 50 µl solution from the highest concentrated well (i.e., 50 µM) was transferred to a test tube containing 4 mL sterile MHB and incubated for 24 h at 37 °C under constant stirring. Streaking of the same solution was done on MHA containing petri dishes and incubated for 24 h at 37 °C to confirm the morphology of the colonies grown. Experiments were performed in triplicates.

[2] = system: Gram-positive Staphylococcus carnosus CCM 4838T; format: cell-based
Protocol: as §1, §2

[3] = system: human red blood cells (HRBCs); format: cell-based
Protocol: as §1
Hemolysis assay. Hemolytic toxicity of the peptides was evaluated from their ability to lyse the fresh human red blood cells (HRBCs) collected from the University Hospital (Brno, Czech Republic). To obtain the erythrocyte pellets, the blood samples were centrifuged twice at 700×g and subsequently, once at 1000×g, each for 8 min. at 4 °C, which was followed by thorough washing with PBS. Resuspension of the pellets was done in PBS to obtain 0.5% (vol/vol) RBC suspension. In a well plate with 96 V-shaped bottom wells, the peptides were added in a dilution series from 0.1 to 50 µM concentration. Subsequently, HRBC suspension was added in each well. Negative control wells contained only PBS and HRBC suspension without any peptide (i.e., 0% lysis), and positive control wells included 5 µM melittin in the HRBC suspension. After incubation for 1 h at 37 °C, the well plates were centrifuged at 1000×g for 10 min. at 4 °C. Subsequently, the supernatant was collected in a flat-bottomed well plate and the optical density of the released hemoglobin was measured for each well at 415 nm wavelength. The calculated absorbances from the wells were then normalized against the averaged absorbances of the positive and the negative control wells. EC50 value was calculated from the normalized absorbances indicating 50% hemolysis of HRBCs. Experiments were performed in triplicates with three independent blood samples.

[4] = hemolysis assay, HRBCs, read-out: Toxicity (EC50 in µM) HRBCs

Row | Substance | Extent of leakage (in percentage) at increasing peptide-to-lipid ratio (mol/mol) 1:10 (Calcein leakage assay) | Extent of leakage (in percentage) at increasing peptide-to-lipid ratio (mol/mol) 1:20 (Calcein leakage assay) | Extent of leakage (in percentage) at increasing peptide-to-lipid ratio (mol/mol) 1:50 (Calcein leakage assay) | Extent of leakage (in percentage) at increasing peptide-to-lipid ratio (mol/mol) 1:100 (Calcein leakage assay) | Antibacterial activity (MIC in µM) E. coli TOP10 [1] | Antibacterial activity (MIC in µM) S. carnosus ([2]; broth microdilution assay, S. carnosus) | EC50 [3] | MIC against E. coli [1] | Antibacterial activity (MIC in µM) S. carnosus ([2]; CCM 4838) | EC50 [3, 4] | calcein / vesicle leakage, pore-forming ability (in words) (Calcein leakage assay; POPC:POPG (1:1) LUVs) | extent of calcein leakage at peptide-to-lipid (P:L) ratio 1:100 (Calcein leakage assay; POPC:POPG (1:1) LUVs) | antimicrobial activity against E. coli (in words) [1] | antimicrobial activity against S. carnosus (in words) [2]
1 | KKKKLKKFFKKLIQLINQLFDDLDDFKKKK-NH2 [KDFD24+9-NH2] | 98.7 ± 3.2 percentage | 81.5 ± 6.8 percentage | 42.6 ± 11.5 percentage | 13.0 ± 5.2 percentage | 12.5 µM | 12.5 µM | > 50 µM | – | – | – | – | – | – | –
2 | NQKKLRRILRRLFQFIDQLDNDLQDIKKQN [RDFC16Kter] | – | 102.2 ± 0.5 percentage | 85.3 ± 4.3 percentage | 64.5 ± 6.1 percentage | 50 µM | – | > 50 µM | 50 µM | – | – | – | – | – | –
3 | KKKKLKKILKKLFQFINQLDNQLQDIKQNK [KDFA2i+8] | – | – | – | – | 0.2 µM | – | – | – | 0.4 µM | > 50 µM | – | – | – | –
4 | NQRRLRRILNQLFQFINQLDNQLQDIRRQN [RDFA2] | – | 102.9 ± 0.9 percentage | 97.4 ± 4.5 percentage | 80.2 ± 8.2 percentage | > 50 µM | – | > 50 µM | – | – | – | – | – | – | –
5 | KKKKLKKILKKLFQFINQLENQLQEIKQNK-NH2 [KEFA2i+9-NH2] | – | – | – | – | 0.8 µM | – | – | – | 0.8 µM | > 50 µM | – | – | – | –
6 | H-KKKKVKKILKKLIQLIDQLDKDLQDIKKKK-NH2 [KD16+9-NH2] | 99.1 ± 2.5 percentage | 93.1 ± 0.7 percentage | 83.0 ± 1.5 percentage | 58.8 ± 4.8 percentage | – | – | > 50 µM | – | – | – | resulted in vesicle leakage | – | – | –
7 | KKKKKLKKILKKLFQFINQLDNQLQDIKKKKK [KDFA2i+12] | – | – | – | – | 0.4 µM | – | – | – | 0.4 µM | > 50 µM | – | – | – | –
8 | KKKKLKKILKKLFQFINQLDNQLQDFKQNK [KDFA2i+8(I26F)] | – | – | – | – | 0.4 µM | – | – | – | 0.8 µM | > 50 µM | – | – | – | –
9 | H-HHHHLKKILKKLFQFINQLDNQLQDIHHHH-OH [KDFA2i+2-Hter] | – | – | – | 102.5 ± 1.2 percentage | – | – | – | – | > 50 µM | – | – | 100% | did not show antibacterial activity | did not show antibacterial activity
10 | KKKKLKKILKKLWQWINQLDNQLQDIKQNK-NH2 [KDWA2i+9-NH2] | – | – | – | – | 0.4 µM | – | – | – | 0.8 µM | > 50 µM | – | – | – | –
11 | NQKKLQNILNKLFKFIDDLINQLQNIKKQN [KDFA9] | – | 102.0 ± 1.4 percentage | 92.0 ± 0.3 percentage | 62.6 ± 5.2 percentage | > 50 µM | – | > 50 µM | – | > 50 µM | – | retained | – | – | –
12 | KKKKLRRILRRLFQFINQLDNQLQDIKQNK-NH2 [RDFA2i+9-NH2-Kter] | – | – | 100.7 ± 1.0 percentage | 76.0 ± 3.3 percentage | 0.2 µM | – | – | – | 0.4 µM | 49 µM | – | – | – | more effective against S. carnosus
13 | RRRRLKKILKKLFQFINQLDNQLQDIRQNR-NH2 [KDFA2i+9-NH2-Rter] | – | 103.3 ± 1.2 percentage | 98.8 ± 1.2 percentage | 65.5 ± 4.2 percentage | 0.4 µM | – | – | – | 0.8 µM | 6.9 µM | – | – | – | –
14 | KKKKLKKILKKLFQFINQLIDDLDDIKKKK-NH2 [KDFC21+9-NH2] | 102.2 ± 1.1 percentage | 99.4 ± 1.6 percentage | 78.2 ± 1.2 percentage | – | 3.1 µM | – | > 50 µM | – | 3.1 µM | – | – | – | – | –
15 | NQKKLKKILNQLFQFINQLDNQLQDIKKQN [KDFA2] | – | – | 100.2 ± 0.2 percentage | 82.8 ± 1.5 percentage | 50 µM | – | > 50 µM | 50 µM | – | – | – | – | – | –
16 | KKKKLKKILKKLFQFIDQLINDLQNIKKKK-NH2 [KDFA5+11-NH2] | – | 101.6 ± 1.4 percentage | 78.0 ± 4.3 percentage | 38.6 ± 3.5 percentage | 1.6 µM | – | – | – | 1.6 µM | > 50 µM | – | – | – | –
